# Reference: patent US8192962B2, “Processes for detecting toxic substances” (Daikin Industries, Ltd., priority 2001, dated 2012)
# System: Metabolism protein genes
# Experiment: DNA chip mRNA expression in yeast, metabolism protein genes (Table 7)
# Type: cell-based, Saccharomyces cerevisiae S288C
# Outline: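 Whole-genome yeast DNA chip hybridization (65° C., >12 h) of Cy-labeled cDNA from S288C cells exposed 2 h at 25° C. to a sub-lethal toxicant dose in YPD; value is intensity relative to chemical-free control.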
substance,measurement,setting,value
manganese ethylenebis(dithiocarbamate) [(8)],The level of expressed mRNA in the presence of chemical substance/The level of expressed mRNA in the absence of chemical substance,yeast gene YJR155W,10.6
same,The level of expressed mRNA in the presence of chemical substance/The level of expressed mRNA in the absence of chemical substance,yeast gene YKL035W,1.0
same,level of expressed mRNA in the presence/in the absence of chemical substance,yeast gene YKL060C,1.1
same,The level of expressed mRNA in the presence of chemical substance/The level of expressed mRNA in the absence of chemical substance,yeast gene YKL091C,1.3
same,The level of expressed mRNA in the presence of chemical substance/The level of expressed mRNA in the absence of chemical substance,yeast gene YKL104C,1.1
same,level of expressed mRNA in the presence/in the absence of chemical substance,yeast gene YKL148C,0.8
same,The level of expressed mRNA in the presence of chemical substance/The level of expressed mRNA in the absence of chemical substance,yeast gene YKL152C,1.0
same,level of expressed mRNA in the presence/in the absence of chemical substance,yeast gene YKL157W,1.1
same,The level of expressed mRNA in the presence of chemical substance/The level of expressed mRNA in the absence of chemical substance,yeast gene YKL213C,1.1
same,The level of expressed mRNA in the presence of chemical substance/The level of expressed mRNA in the absence of chemical substance,yeast gene YKL215C,1.1
same,level of expressed mRNA in the presence/in the absence of chemical substance,yeast gene YKR034W,1.5
same,The level of expressed mRNA in the presence of chemical substance/The level of expressed mRNA in the absence of chemical substance,yeast gene YLL058W,0.9
same,level of expressed mRNA in the presence/in the absence of chemical substance,yeast gene YLR006C,0.9
same,level of expressed mRNA in the presence/in the absence of chemical substance,yeast gene YLR044C,0.7
same,level of expressed mRNA in the presence/in the absence of chemical substance,yeast gene YLR056W,0.9
same,level of expressed mRNA in the presence/in the absence of chemical substance,yeast gene YLR058C,0.3
same,level of expressed mRNA in the presence/in the absence of chemical substance,yeast gene YLR081W,0.9
same,level of expressed mRNA in the presence/in the absence of chemical substance,yeast gene YLR089C,0.7
same,The level of expressed mRNA in the presence of chemical substance/The level of expressed mRNA in the absence of chemical substance,yeast gene YLR180W,0.9
same,The level of expressed mRNA in the presence of chemical substance/The level of expressed mRNA in the absence of chemical substance,yeast gene YLR273C,1.3
same,level of expressed mRNA in the presence/in the absence of chemical substance,yeast gene YLR284C,1.2
same,The level of expressed mRNA in the presence of chemical substance/The level of expressed mRNA in the absence of chemical substance,yeast gene YLR299W,1.0
same,The level of expressed mRNA in the presence of chemical substance/The level of expressed mRNA in the absence of chemical substance,yeast gene YLR300W,0.8
same,level of expressed mRNA in the presence/in the absence of chemical substance,yeast gene YLR304C,0.6
same,The level of expressed mRNA in the presence of chemical substance/The level of expressed mRNA in the absence of chemical substance,yeast gene YLR307W,1.2
same,The level of expressed mRNA in the presence of chemical substance/The level of expressed mRNA in the absence of chemical substance,yeast gene YLR348C,0.9
same,level of expressed mRNA in the presence/in the absence of chemical substance,yeast gene YLR354C,1.4
same,level of expressed mRNA in the presence/in the absence of chemical substance,yeast gene YLR372W,0.9
same,level of expressed mRNA in the presence/in the absence of chemical substance,yeast gene YML022W,1.1
same,The level of expressed mRNA in the presence of chemical substance/The level of expressed mRNA in the absence of chemical substance,yeast gene YML054C,1.5
same,The level of expressed mRNA in the presence of chemical substance/The level of expressed mRNA in the absence of chemical substance,yeast gene YML070W,1.3
same,The level of expressed mRNA in the presence of chemical substance/The level of expressed mRNA in the absence of chemical substance,yeast gene YML100W,0.7
same,The level of expressed mRNA in the presence of chemical substance/The level of expressed mRNA in the absence of chemical substance,yeast gene YMR008C,0.5
same,level of expressed mRNA in the presence/in the absence of chemical substance,yeast gene YMR011W,1.1
same,level of expressed mRNA in the presence/in the absence of chemical substance,yeast gene YMR015C,0.7
same,The level of expressed mRNA in the presence of chemical substance/The level of expressed mRNA in the absence of chemical substance,yeast gene YMR020W,1.2
same,level of expressed mRNA in the presence/in the absence of chemical substance,yeast gene YMR083W,1.1
same,The level of expressed mRNA in the presence of chemical substance/The level of expressed mRNA in the absence of chemical substance,yeast gene YMR105C,1.1
same,The level of expressed mRNA in the presence of chemical substance/The level of expressed mRNA in the absence of chemical substance,yeast gene YMR189W,0.4
same,level of expressed mRNA in the presence/in the absence of chemical substance,yeast gene YMR205C,0.7
same,level of expressed mRNA in the presence/in the absence of chemical substance,yeast gene YMR261C,0.7
same,The level of expressed mRNA in the presence of chemical substance/The level of expressed mRNA in the absence of chemical substance,yeast gene YMR271C,1.8
same,The level of expressed mRNA in the presence of chemical substance/The level of expressed mRNA in the absence of chemical substance,yeast gene YMR296C,0.5
same,level of expressed mRNA in the presence/in the absence of chemical substance,yeast gene YMR323W,0.8
same,The level of expressed mRNA in the presence of chemical substance/The level of expressed mRNA in the absence of chemical substance,yeast gene YNL012W,1.8
same,level of expressed mRNA in the presence/in the absence of chemical substance,yeast gene YNL025C,1.0
same,The level of expressed mRNA in the presence of chemical substance/The level of expressed mRNA in the absence of chemical substance,yeast gene YNL045W,0.7
same,The level of expressed mRNA in the presence of chemical substance/The level of expressed mRNA in the absence of chemical substance,yeast gene YNL104C,0.9
same,The level of expressed mRNA in the presence of chemical substance/The level of expressed mRNA in the absence of chemical substance,yeast gene YNL106C,0.8
same,The level of expressed mRNA in the presence of chemical substance/The level of expressed mRNA in the absence of chemical substance,yeast gene YNL169C,0.8
same,level of expressed mRNA in the presence/in the absence of chemical substance,yeast gene YNL192W,0.8
same,The level of expressed mRNA in the presence of chemical substance/The level of expressed mRNA in the absence of chemical substance,yeast gene YNL231C,1.5
same,The level of expressed mRNA in the presence of chemical substance/The level of expressed mRNA in the absence of chemical substance,yeast gene YNL322C,0.7
same,The level of expressed mRNA in the presence of chemical substance/The level of expressed mRNA in the absence of chemical substance,yeast gene YNL331C,13.1
same,The level of expressed mRNA in the presence of chemical substance/The level of expressed mRNA in the absence of chemical substance,yeast gene YNL332W,1.5
same,The level of expressed mRNA in the presence of chemical substance/The level of expressed mRNA in the absence of chemical substance,yeast gene YNR019W,0.7
same,The level of expressed mRNA in the presence of chemical substance/The level of expressed mRNA in the absence of chemical substance,yeast gene YNR033W,1.1
same,The level of expressed mRNA in the presence of chemical substance/The level of expressed mRNA in the absence of chemical substance,yeast gene YNR059W,1.3
same,The level of expressed mRNA in the presence of chemical substance/The level of expressed mRNA in the absence of chemical substance,yeast gene YOL058W,1.6
same,level of expressed mRNA in the presence/in the absence of chemical substance,yeast gene YOL086C,0.8
same,level of expressed mRNA in the presence/in the absence of chemical substance,yeast gene YOL108C,1.3
same,level of expressed mRNA in the presence/in the absence of chemical substance,yeast gene YOL116W,1.3
same,The level of expressed mRNA in the presence of chemical substance/The level of expressed mRNA in the absence of chemical substance,yeast gene YOL126C,0.9
same,The level of expressed mRNA in the presence of chemical substance/The level of expressed mRNA in the absence of chemical substance,yeast gene YOL153C,1.0
same,level of expressed mRNA in the presence/in the absence of chemical substance,yeast gene YOL156W,1.0
same,The level of expressed mRNA in the presence of chemical substance/The level of expressed mRNA in the absence of chemical substance,yeast gene YOL165C,17.8
same,level of expressed mRNA in the presence/in the absence of chemical substance,yeast gene YOR002W,0.9
same,level of expressed mRNA in the presence/in the absence of chemical substance,yeast gene YOR085W,0.7
same,The level of expressed mRNA in the presence of chemical substance/The level of expressed mRNA in the absence of chemical substance,yeast gene YOR099W,0.9
same,level of expressed mRNA in the presence/in the absence of chemical substance,yeast gene YOR103C,1.0
same,level of expressed mRNA in the presence/in the absence of chemical substance,yeast gene YOR108W,0.9
same,level of expressed mRNA in the presence/in the absence of chemical substance,yeast gene YOR128C,0.6
same,The level of expressed mRNA in the presence of chemical substance/The level of expressed mRNA in the absence of chemical substance,yeast gene YOR130C,0.8
same,level of expressed mRNA in the presence/in the absence of chemical substance,yeast gene YOR142W,0.8
same,level of expressed mRNA in the presence/in the absence of chemical substance,yeast gene YOR176W,1.0
same,level of expressed mRNA in the presence/in the absence of chemical substance,yeast gene YOR178C,0.9
same,level of expressed mRNA in the presence/in the absence of chemical substance,yeast gene YOR251C,1.1
same,The level of expressed mRNA in the presence of chemical substance/The level of expressed mRNA in the absence of chemical substance,yeast gene YOR336W,0.8
same,The level of expressed mRNA in the presence of chemical substance/The level of expressed mRNA in the absence of chemical substance,yeast gene YOR347C,0.8
same,level of expressed mRNA in the presence/in the absence of chemical substance,yeast gene YOR348C,0.8
same,The level of expressed mRNA in the presence of chemical substance/The level of expressed mRNA in the absence of chemical substance,yeast gene YPL017C,1.3
same,level of expressed mRNA in the presence/in the absence of chemical substance,yeast gene YPL028W,0.9
same,level of expressed mRNA in the presence/in the absence of chemical substance,yeast gene YPL057C,1.0
same,level of expressed mRNA in the presence/in the absence of chemical substance,yeast gene YPL135W,1.0
same,level of expressed mRNA in the presence/in the absence of chemical substance,yeast gene YPL148C,0.9
same,The level of expressed mRNA in the presence of chemical substance/The level of expressed mRNA in the absence of chemical substance,yeast gene YPR026W,1.0
same,level of expressed mRNA in the presence/in the absence of chemical substance,yeast gene YPR113W,0.9
same,level of expressed mRNA in the presence/in the absence of chemical substance,yeast gene YPR165W,1.0
same,The level of expressed mRNA in the presence of chemical substance/The level of expressed mRNA in the absence of chemical substance,yeast gene YPR167C,5.5
same,level of expressed mRNA in the presence/in the absence of chemical substance,yeast gene YPR183W,1.0
